Test results: paper PMC9880178, “Cecropin D-derived synthetic peptides in the fight against Candida albicans cell filamentation and biofilm formation” (Frontiers in Microbiology, 2023)
Like-named read-outs stand apart in the source and are kept apart here. Where no end group is shown, it is not given here.

Key:
C. albicans cells = test: microbe, parasite or virus in culture; conditions: for IC90: 24 h; for FICI: combination of peptide with caspofungin
Description: To determine the viability of C. albicans, the 2,3-bis(2-methoxy-4-nitro-5-sulfo-phenyl)-2H-tetrazolium-5-carboxanilide (XTT) (ThermoFisher Scientific) reduction assay is used as a routine tool for quantitative measurement of fungal metabolic activity, growth and response to antifungal treatment ([van Dijck et al., 2018]). The tests were performed as described ([Kulig et al., 2022]) with some modifications. Briefly, 100 μl of RPMI 1640 medium without phenol red (Biowest) and 50 μl of XTT solution (1 mg/ml; Invitrogen, Waltham, MA, United States), freshly activated with phenazine methosulfate (5 μg/ml; Sigma-Aldrich) in the same medium, were added to C. albicans cells. After 40 min of incubation at 37°C in the dark, 100 μl of supernatants were transferred to the wells of a new 96-well microplate (Sarstedt, Nümbrecht, Germany). The absorbance of the formazan product was measured spectrophotometrically at 450 nm using a Synergy H1 microplate reader (BioTek Instruments, Winooski, VT, United States).
The following concentrations of peptides and antifungal drugs were used for the assay: ΔM3 0.4–50 μM, ΔM4 0.4–3.1 μM, amphotericin B 0.2–1.6 μM, fluconazole 0.2–1.6 μM and caspofungin 0.003–0.2 μM (the latter two from Sigma-Aldrich). The combinatory effects of each peptide and each conventional antimycotic drug were tested by the previously described checkerboard method ([Guo et al., 2008]; [Do Nascimento Dias et al., 2020]) with minor modification. C. albicans cells (3 × 10^2) were suspended in 100 μl of RPMI 1640 medium, containing peptide, drug, or their combination, in wells of Falcon® 96-well clear flat bottom TC-treated culture microplate (Corning). Fungal cells only in RPMI 1640 medium without peptides and drugs served as a control. Incubation was carried out for 24 h at 37°C in an atmosphere of 5% CO2 and 95% humidity without shaking. After this time, cell viability was measured using an XTT reduction assay. The analysis was performed in biological triplicate. For each combination, Fractional Inhibitory Concentration Index (FICI) was determined using the following formula: […]
Where FICa is the ratio of IC90 value for the compound a in combination to the IC90 value of the agent a alone; FICb is the ratio of IC90 value for compound b in combination to the IC90 value of the agent b alone.
The FICI ≤0.5 was interpreted as a synergistic effect, 0.5< FICI ≤1.0 as additive, 1.0< FICI ≤2.0 as indifferent and FICI >2.0 as antagonism.

human erythrocytes = conditions: cited from earlier work
Text: Promising antimicrobial properties were also previously reported for the cecropin D-like peptide (UniProtKB accession number: P85210) from the greater wax moth Galleria mellonella ([Cytrynska et al., 2007]). Modification of particular residues resulting in an increase of peptide charge and basic residues on the polar face of the molecule compared to a neutral wild-type peptide, enhanced the antibacterial activity of peptides derived from the cecropin D-like natural sequence. One such type of derivative was the synthetic cationic peptide ΔM2 with 39 amino acid residues and a charge of +9, which ...

[1] = test system: cytosolic Ca2+ in C. albicans biofilm; test: Cytosolic Ca2+, Fura-2 Calcium Flux Assay; format: cell-based, Candida albicans; conditions: 10 mM, positive control, 3 h, 24-h biofilm
Description: Accumulation of cytosolic Ca^2+ was measured with the Fura-2 Calcium Flux Assay Kit (Abcam, Cambridge, Great Britain). The 24-h biofilms of C. albicans were incubated for 3 h with 100 μl of ΔM3 (25 μM and 50 μM) or ΔM4 (6.2 μM and 12.5 μM) and H2O2 (10 mM; positive control) solutions prepared in RPMI 1640. The concentration of peptides was chosen close to those for which the effect of apoptosis was obtained in experiments analyzing the activity of metacaspases. After incubation, biofilms were washed with Hanks Balanced Salt Solution (Biowest) with Pluronic® F127 Plus (Abcam). Then 100 μl of Fura-2 AM solution was added to the biofilms and incubated for 1 h at room temperature. The fluorescence was then measured using a Synergy H1 microplate reader with excitation at 340 nm and emission at 510 nm.

[2] = test system: mitochondria of C. albicans biofilm cells; test: Mitochondrial activity, MitoTracker Orange / MitoTracker Green; format: cell-based, Candida albicans; conditions: 50 μM ΔM3, 6.2 μM ΔM4 or 2.7 μM amphotericin B, 3 h, 24-h biofilm
Description: The 24-h biofilms of C. albicans were incubated with 100 μl of ΔM3 (50 μM) or ΔM4 (6.2 μM) and amphotericin B (2.7 μM; positive control) solutions in RPMI 1640 medium for 3 h at 37°C. After that time, biofilms were washed with 200 μl of PBS and incubated for 30 min at 37°C with MitoTracker Green TM dye (Invitrogen) at final concentration of 500 nM, used to detect the change in total mitochondrial mass, and MitoTracker Orange (500 nM), used to detect the change in mitochondrial activity. Mitochondria were imaged in the FITC and TRIC channel, using the Olympus IX73 microscope.

[3] = Candida albicans, read-out: IC90, compound acting alone
[4] = drug (compound a) in combination with ΔM3
[5] = drug (compound a) in combination with ΔM4

| Compound | IC90 (C. albicans cells; cells) [nM] | FICI (C. albicans cells) | IC90 (C. albicans cells; [3]) [nM] | FICa (C. albicans cells; [4]) | FICa (C. albicans cells; [5]) | also measured |
| --- | --- | --- | --- | --- | --- | --- |
| NFFKRIRRAGKRIRKAIISA [ΔM3] | 50000 | 0.062 | – | – | – | hemolytic activity (human erythrocytes): low |
| OC(Cn1cncn1)(Cn1cncn1)c1ccc(F)cc1F [Fluconazole, fluconazole] | – | – | 800 | 0.25 | 0.25 | IC90 in combination with each peptide compared to administered alone (C. albicans cells; combination with ΔM3 or ΔM4): four-fold lower |
| NFFKRIRRAWKRIWKWIYSA [ΔM4] | 3100 | 0.370 | – | – | – | – |
| OO [H2O2] | – | – | – | – | – | increase in cytosolic Ca2+ concentration [1]: up to 50% |
| C[C@@H]1[C@H](O)[C@@H](C)/C=C/C=C/C=C/C=C/C=C/C=C/C=C/[C@H](O[C@@H]2O[C@H](C)[C@@H](O)[C@H](N)[C@@H]2O)C[C@@H]2O[C@](O)(C[C@@H](O)C[C@@H](O)[C@H](O)CC[C@@H](O)C[C@@H](O)CC(=O)O[C@H]1C)C[C@H](O)[C@H]2C(=O)O [Amphotericin B, amphotericin B] | – | – | 1600 | 0.5 | 0.5 | mitochondrial activity (MitoTracker Orange fluorescence) [2]: partial loss of mitochondrial activity |
| CC[C@H](C)C[C@H](C)CCCCCCCCC(=O)N[C@H]1C[C@@H](O)[C@@H](NCCN)NC(=O)[C@@H]2[C@@H](O)CCN2C(=O)[C@H]([C@H](O)CCN)NC(=O)[C@H]([C@H](O)[C@@H](O)c2ccc(O)cc2)NC(=O)[C@@H]2C[C@@H](O)CN2C(=O)[C@H]([C@@H](C)O)NC1=O [Caspofungin, caspofungin] | – | – | 100 | 0.03 | 0.12 | – |
